What all share (format): in vivo, rat
One assay concerns PI-IBS rats. Description: Colonic EC cell counting (silver staining). The settings on record: for EC cell density: PI-IBS rats, colon. On the procedure:
Six groups of 5 rats are tested. The groups setting and treatments are as described in Example 1. Different from Example 1, AWR test are not applied to the rats in this experiment in order to obtain the basal data without CRD stimulus. After the last drug administration, a 6 cm proximal colon (1-2 cm from caecum) is collected and divided into 3 parts, the proximal is fixed in 4% paraformaldehyde and embedded in paraffin for EC cell staining; the middle part is collected for 5-HT content measurement and electron microscopic evaluation, and the distal part is for western blotting analysis.
Tissue sections (5-μm thick) are deparaffinized and rehydrated for silver staining. Briefly, sections are incubated with 5% ammoniacal silver solution for 4 h at room temperature, then 2 h in 56° C. and subsequently 12 h at room temperature in a dark humidified chamber. After rinsing with water, 5% sodium hyposulfite is added and the tissue sections are incubated for 5 min at room temperature. The brown to black silver precipitate in the cytoplasm of EC cells represents as a positive reaction. A researcher blinded to treatment counted 5 random fields at 200× magnifications for each section, and the number of EC cells per mm^2 of mucosa is quantified using Image J NIH software.

Assay [1] concerns normal rats. The assay can be described thus: Pain threshold pressure in normal rats. The following applies: 10 mg/kg i.g., 14 days. On the procedure:
AWR test is performed as previously described in Al-Chaer E D, Kawasaki M, Pasricha P J. A new model of chronic visceral hypersensitivity in adult rats induced by colon irritation during postnatal development. Gastroenterology. 2000 November; 119(5):1276-85. Briefly, rats are lightly anesthetized with ether; a latex balloon is inserted into the descending colon. Rats are then allowed to recover for about 1 h. The tube of the balloon is connected via a Y-connector to a sphygmomanometer and colorectal distension is applied in increments of 5 mmHg until a visible contraction of the abdominal wall is observed by an investigator blinded to the treatment. […] The pain threshold pressure of all groups is recorded and repeated five times with intervals of at least 5 minutes for recovery. […] The changes of area under the curve (AUC) are calculated using that during 20 s distension period over the 20 s baseline.
(§1) To identify whether the effects of Quercerin in PI-IBS rats are specific, pain threshold pressure, colonic EC cell number and 5-HT content are further evaluated in normal rats treated with Quercetin. […] After the final drug administration, pain threshold pressure, colonic EC cell density and 5-HT content are evaluated and the methods used here are as same as that shown in above experiments.

Assay [2] concerns normal rats. Description: Colonic 5-HT content in normal rats. The settings on record: 10 mg/kg i.g., 14 days. On the procedure:
5-HT content in the colon tissue is assayed based on our previously reported procedure in Qi S D, Tian S L, Xu H X, Sung J J, Bian Z X. Quantification of luminally released serotonin in rat proximal colon by capillary electrophoresis with laser-induced fluorescence detection. Anal Bioanal Chem. 2009 April; 393(8):2059-66. Briefly, the colon segment is homogenized in 15% iced trichloroacetic acid; for 2 min and stored at 4° C. for 2 h. After centrifuge at 10,000 G for 15 min, the supernatant of each sample is filtered using 0.22 μm filters and extracted with diethyl ether for five times to remove the trichloroacetic acid. The prepared samples are added to derivatization solution (150 mM sodium tetraborate, 25% acetonitrile, 2 mM CFSE) and incubated for […] in dark at room temperature. The 5-HT content is analyzed by capillary electrophoresis with laser-induced fluorescence detection and expressed as nanogram per milligram (wet weight of tissue).
as §1

For `O=c1c(O)c(-c2ccc(O)c(O)c2)oc2cc(O)cc(O)c12` [Quercetin, 2-(3,4-dihydroxyphenyl)-3,5,7-trihydroxy-4H-chromen-4-one], the figures for the EC cell density in the assay with PI-IBS rats (5 mg/kg i.g.), in the assay on PI-IBS rats (10 mg/kg i.g.) and with PI-IBS rats (20 mg/kg i.g.) were 89 ± 5 Number/mm^2, 72 ± 7 Number/mm^2 and 105 ± 8 Number/mm^2, respectively. For the same compound, the “Decrease of EC cells number compared with the PI-IBS group” value in the assay on PI-IBS rats (low dose (5 mg/kg)) is reported as 18%; with PI-IBS rats (median dose (10 mg/kg)) it was 42%. In addition, the Pain threshold pressure with normal rats [1] is given as 37.9 ± 1.7 mmHg. The compound also came in with a 5-HT content in the assay on normal rats [2] of 4.06 ± 0.48 ng/mg.
